Reference: patent publication US10111847B2, “Compounds and methods for modulating vascular injury” (The Regents of the University of California, priority 2012, dated 2018)

Legend:
VSMC = test: TNF-α-induced superoxide production (DHE) in VSMC (RvD1); format: cell-based, human; settings: 10 and 100 nM; TNF-α 10 ng/ml 4 hours
Procedure: RvD1. Cells are seeded and grown on chamber slides at a density of 10,000 cells per chamber for 2 days, followed by treatment with 10 ng/ml TNF-α with or without RvD1 (10 and 100 nM) in serum-free media for 4 hours. After incubation cells are incubated with DHE (5 μmol/L, Invitrogen) in PBS for 30 minutes at 37° C. in a humidified chamber protected from light. DAPI nuclear counter staining is utilized. For frozen section 30-μm-thick sections are incubated with DHE (10 μmol/L) in PBS for 30 minutes at the same condition described above. Fluorescence was detected with TRITC filter allowing the detection of the DHE emission wavelength of 590-620 nm. The fluorescence lamp gain is standardized for all images and analyses. Fluorescence quantitation is performed using ImageJ analysis software (National Institute of Health, Bethesda, Md.). For VSMC the fluorescence intensity is determined for the DHE-stained control cells (no treatment control) from each experimental group and then individual treated cells from the same group are normalized to the corresponding value. For frozen sections the fluorescence intensity is determined for the DHE-stained control vessels (uninjured abdominal aorta) from each experimental group and then individual treated vessels from the same group are normalized to the corresponding value. […]

TNF-α-stimulated VSMC = test: U937 monocyte adhesion to TNF-α-stimulated VSMC (Maresin-1); format: cell-based, human; settings: 1-100 nM, 30 min pretreatment; TNFα 10 ng/ml 4 hr
Procedure: MaR-1. VSMCs and ECs were seeded on a 96 well plate (20000 cells/well for VSMCs and 50000 cells/well for ECs) and after 2 days, were treated with Maresin-1 (1-100 nM) for 30 min followed by TNF-α for 4 hr and then calcein AM-labeled U937 cells were added on top of the VSMCs. After 15-minute incubation at 37 C, unbound cells were washed off with cold PBS. Fluorescence measurements (ex 494 nm, em 517 nm) of bound monocytes were taken with a plate reader. For capturing images, the assay was performed in 8-well chamber slides (Nunc Labtek) and images were taken after cold PBS wash (three times) following U937 incubation.
FIGS. 15A-15D. Representative images of Calcein-AM labeled U937 monocytes adhered to human sv-VSMCs pretreated with vehicle (A, B) or 7S-Maresin-1 (C) or 7S-Maresin-1 and pertussis toxin (D) for 30 min, followed by TNFα at 10 ng/ml for 4 hr (B, C, D). (E) Quantitative analysis of U937 adhesion assay in human sv-VSMCs and (F) human sv-ECs (1 ng/ml TNFα used for EC cells). […] Bar graph represents net quantitative densitometry analysis. […] Expression of MCP-1 was measured by qRT-PCR, and normalized to unstimulated cells (n=3, results are mean±SEM, P<0.05 for Mar-1 (10 and 100 nM) vs TNF alone, unpaired t-test).

rabbit femoral artery = test: Rabbit femoral artery balloon injury, neointimal hyperplasia at 28 days; format: in vivo, New Zealand White Rabbits; settings: 10 nM local; 28 days after injury; vehicle 0.38±0.04; P=0.002
Procedure: All animal experiments are performed under a protocol approved by University of California San Francisco Animal Care Committee. New Zealand White Rabbits (NZWR, Western Oregon Rabbit Company, Philomath, Oreg.) weighing 3 to 5 kg and maintained on a normal chow diet are used in all experiments. Animals are anesthetized for surgical procedures with intramuscular injection of ketamine (25 mg/kg) and xylazine (5 mg/kg), and maintained with inhalation of isoflurane. The balloon injury model is made as described by Conte et al. “Efficient repopulation of denuded rabbit arteries with autologous genetically modified endothelial cells,” Circulation. 1994; 89:2161-2169. Rabbits undergo bilateral external iliac and femoral artery injury with 2F Fogarty balloon catheter (Applied Medical Resources Corp. Rancho Santa Margarita, Calif.). After balloon injury RvD2 (10 nM, Cayman chemical, Ann Arbor, Mich.) is infused to luminal area of the right femoral artery and control vehicle (normal saline with 0.1% ethanol) is infused to the left femoral artery, and then left undisturbed for 20 minutes. For evaluation of acute effects the rabbits are euthanized at 3 days after injury by intravenous overdose of sodium Nembutal. The femoral arteries are harvested and cryosection is made for immunohistochemistry, and total RNA from treated and control tissue is isolated. […]

Compound: CC/C=C\C[C@H](O)/C=C/C=C\C=C\C=C\[C@@H](O)[C@@H](O)C/C=C\CCC(=O)O [RvD1, Resolvin D1]
- TNF-α-induced superoxide production in VSMC (VSMC): significantly reduced

Compound: CC/C=C\C/C=C\C[C@H](O)\C=C/C=C/C=C/[C@@H](O)C/C=C\CCC(=O)O [7S-Maresin-1, 7S,14R-dihydroxydocosa-4Z,8E,10Z,12Z,16Z,19Z-hexaenoic acid]
- monocyte adhesion (U937) to TNF-α-stimulated VSMC (TNF-α-stimulated VSMC): dose-dependent inhibition

Compound: CC/C=C\C[C@H](O)[C@H](O)/C=C/C=C/C=C\C=C\[C@@H](O)C/C=C\CCC(=O)O [RvD2, resolvin D2]
- neointimal area (rabbit femoral artery): 0.27±0.03 mm^2
